The source of these data is publication PMC9656787, “Design, Synthesis and Biological Evaluation of Novel 1,3,5-Triazines: Effect of Aromatic Ring Decoration on Affinity to 5-HT7 Receptor” (International Journal of Molecular Sciences, 2022).

The structures appear in SMILES notation. “And” between values parts separate entries of the source, which are not always exact repeats. Equal entries are not always repeated.

In data set [1] the target is T1, 5-HT7 receptor (Homo sapiens, UniProt P34969).
T1 construct: host or cells: cell membranes from cultured cells
T1 sequence (P34969 1-432 limits assumed): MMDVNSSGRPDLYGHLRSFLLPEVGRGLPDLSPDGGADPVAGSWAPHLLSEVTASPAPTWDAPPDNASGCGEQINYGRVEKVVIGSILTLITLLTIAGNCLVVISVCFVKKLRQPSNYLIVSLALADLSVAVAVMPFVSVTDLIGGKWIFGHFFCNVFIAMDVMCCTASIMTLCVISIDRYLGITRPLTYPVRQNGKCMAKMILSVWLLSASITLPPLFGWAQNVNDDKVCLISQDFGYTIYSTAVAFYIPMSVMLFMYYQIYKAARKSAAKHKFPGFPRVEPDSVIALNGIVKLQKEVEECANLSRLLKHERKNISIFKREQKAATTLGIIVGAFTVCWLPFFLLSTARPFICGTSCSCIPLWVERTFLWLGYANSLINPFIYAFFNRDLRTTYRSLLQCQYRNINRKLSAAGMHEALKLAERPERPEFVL
The experiment in a line: Radioligand binding assay, 5-HT7 receptor. Particulars: for activity with respect to 5-HT7R (in words): SAR discussion of radioligand data; for Ki: mean ± SD, triplicate at 7 concentrations, Cheng-Prusoff, read-out: Affinity Ki 5-HT7R. As for the experimental part:
(§1) The affinity of the studied compounds to 5-HT1A, 5-HT2A, 5-HT6, 5-HT7, and D2 receptors was evaluated by a radioligand assay, as reported previously (Table 1). Each compound was tested in triplicate at seven concentrations (from 0.1 nM to 100 µM). Inhibition constants (Ki) were calculated from the Cheng–Prusoff equation [23].
(§2) The cell culture, cell membranes, and radioligand binding assays were performed in accordance with standard protocols.

Data set [2] has as its target T2, 5-HT2A receptor (Homo sapiens, UniProt P28223).
T2 construct: host or cells: cell membranes from cultured cells
The experiment in a line: Radioligand binding assay, 5-HT2A receptor. The settings on record: mean ± SD, triplicate at 7 concentrations, Cheng-Prusoff; read-out: Affinity Ki 5-HT2AR. As for the experimental part: as §1, §2

Data set [3] deals with T3, 5-HT1A receptor (Homo sapiens, UniProt P08908).
T3 construct: host or cells: cell membranes from cultured cells
T3 sequence (P08908 1-422): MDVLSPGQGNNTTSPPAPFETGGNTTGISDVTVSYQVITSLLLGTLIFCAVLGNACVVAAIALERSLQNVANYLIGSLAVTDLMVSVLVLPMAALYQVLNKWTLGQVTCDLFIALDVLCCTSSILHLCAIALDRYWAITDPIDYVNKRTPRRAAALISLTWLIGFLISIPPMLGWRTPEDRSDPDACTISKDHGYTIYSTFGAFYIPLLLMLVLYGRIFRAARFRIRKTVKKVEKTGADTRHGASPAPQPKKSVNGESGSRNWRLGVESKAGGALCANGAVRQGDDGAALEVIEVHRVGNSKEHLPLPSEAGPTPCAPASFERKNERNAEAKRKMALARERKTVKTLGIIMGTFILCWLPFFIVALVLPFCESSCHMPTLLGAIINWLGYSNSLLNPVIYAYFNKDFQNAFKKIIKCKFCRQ
Put plainly: Radioligand binding assay, 5-HT1A receptor. The settings on record: mean ± SD, triplicate at 7 concentrations, Cheng-Prusoff; read-out: Affinity Ki 5-HT1AR. As for the experimental part: as §1, §2

Data set [4] deals with T4, 5-HT6 receptor (Homo sapiens, UniProt P50406).
T4 construct: host or cells: cell membranes from cultured cells
T4 sequence (P50406 whole entry): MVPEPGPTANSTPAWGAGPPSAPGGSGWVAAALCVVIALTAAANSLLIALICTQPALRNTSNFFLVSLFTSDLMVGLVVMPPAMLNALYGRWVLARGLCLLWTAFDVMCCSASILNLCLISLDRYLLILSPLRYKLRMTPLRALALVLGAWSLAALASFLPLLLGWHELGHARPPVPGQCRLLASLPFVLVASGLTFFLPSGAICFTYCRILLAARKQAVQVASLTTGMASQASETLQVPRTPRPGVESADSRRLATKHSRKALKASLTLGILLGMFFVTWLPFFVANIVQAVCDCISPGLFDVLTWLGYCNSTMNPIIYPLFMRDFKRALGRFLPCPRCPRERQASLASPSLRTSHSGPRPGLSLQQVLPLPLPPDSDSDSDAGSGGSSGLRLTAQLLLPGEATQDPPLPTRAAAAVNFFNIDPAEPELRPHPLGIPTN
The experiment in a line: Radioligand binding assay, 5-HT6 receptor. The settings on record: mean ± SD, triplicate at 7 concentrations, Cheng-Prusoff; read-out: Affinity Ki 5-HT6R. As for the experimental part:
as §1, §2

For data set [5], the target named is T5, D2 receptor (Homo sapiens, UniProt P14416).
T5 construct: host or cells: cell membranes from cultured cells
T5 sequence (P14416 whole entry): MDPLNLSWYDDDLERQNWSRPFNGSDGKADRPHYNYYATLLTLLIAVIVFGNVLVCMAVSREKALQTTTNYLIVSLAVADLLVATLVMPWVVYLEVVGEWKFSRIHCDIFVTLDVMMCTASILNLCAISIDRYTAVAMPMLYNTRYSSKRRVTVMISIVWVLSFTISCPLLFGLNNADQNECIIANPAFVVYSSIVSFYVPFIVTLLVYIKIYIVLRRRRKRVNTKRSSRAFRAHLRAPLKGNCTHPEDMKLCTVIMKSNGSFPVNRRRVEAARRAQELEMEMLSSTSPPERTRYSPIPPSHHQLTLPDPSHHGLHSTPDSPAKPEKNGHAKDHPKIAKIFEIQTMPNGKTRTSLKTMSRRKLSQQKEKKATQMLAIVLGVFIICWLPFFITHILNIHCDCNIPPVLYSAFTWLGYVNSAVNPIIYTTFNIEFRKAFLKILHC
Put plainly: Radioligand binding assay, D2 receptor. Particulars: mean ± SD, triplicate at 7 concentrations, Cheng-Prusoff; read-out: Affinity Ki D2R. As for the experimental part:
as §1, §2

T2 sequence (P28223 whole entry): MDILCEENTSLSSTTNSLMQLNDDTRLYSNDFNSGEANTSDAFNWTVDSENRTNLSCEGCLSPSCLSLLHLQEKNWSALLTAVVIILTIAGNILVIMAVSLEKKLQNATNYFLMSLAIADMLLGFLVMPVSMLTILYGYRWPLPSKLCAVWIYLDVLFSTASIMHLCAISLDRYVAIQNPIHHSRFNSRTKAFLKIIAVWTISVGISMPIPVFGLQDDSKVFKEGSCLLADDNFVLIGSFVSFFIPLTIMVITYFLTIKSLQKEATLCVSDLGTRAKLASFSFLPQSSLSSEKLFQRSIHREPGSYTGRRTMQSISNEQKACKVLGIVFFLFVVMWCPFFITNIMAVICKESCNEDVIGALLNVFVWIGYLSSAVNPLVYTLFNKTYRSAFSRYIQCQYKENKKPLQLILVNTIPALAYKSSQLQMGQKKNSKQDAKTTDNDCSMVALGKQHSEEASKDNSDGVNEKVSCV

One may read the Ki as a dissociation constant, usually derived from enzyme kinetics or from competition with a known ligand. What is called melting point is the temperature of the solid-liquid transition. `Cl.N#Cc1ccc2[nH]cc(CCNc3nc(N)nc(NCCc4ccccc4)n3)c2c1` [Compound 1, 3-(2-((4-Amino-6-(Phenethylamino)-1,3,5-Triazin-2-yl)Amino)Ethyl)-1H-Indole-5-Carbonitrile Hydrochloride]: the melting point is 95 to 98 °C. Further, in data set [1], the “activity with respect to 5-HT7R (in words)” value (“activity” below) is listed as “activity toward the 5-HT7 receptor being lost” and the Ki was determined as 2.88 ± 0.351 µM. The inhibitory constant (Ki) in data set [2] was 0.927 ± 0.927 µM. Further, the Ki in data set [3] was found to be 13 µM.
`Cl.Nc1nc(NCCc2ccccc2)nc(NCCc2c[nH]c3ccc(Br)cc23)n1` [Compound 3, N^2-(2-(5-Bromo-1H-Indol-3-yl)ethyl)-N^4-Phenethyl-1,3,5-Triazine-2,4,6-Triamine Hydrochloride] registered a melting point of 82 to 85 °C. In addition, the Ki in data set [1] came to 0.126 ± 0.017 µM. For the same compound, in data set [2], the Ki came to 0.942 ± 0.112 µM. Besides, the Ki in data set [3] stood at 11 µM. Besides, the Ki in data set [4] was found to be 0.234 ± 0.027 µM.
For the compound `Cl.Nc1nc(NCCc2ccccc2)nc(NCCc2c[nH]c3ccc(Cl)cc23)n1` [Compound 4, N^2-(2-(5-Chloro-1H-Indol-3-yl)ethyl)-N^4-Phenethyl-1,3,5-Triazine-2,4,6-Triamine Hydrochloride], the melting point is 106 to 108 °C. Besides, the Ki in data set [1] is 0.481 ± 0.023 µM. Further, the Ki in data set [5] was 14.5 µM. Also, the Ki in data set [2] is 0.559 ± 0.041 µM. In data set [3], the Ki came out at 3.91 ± 0.581 µM. Also, the Ki in data set [4] stood at 0.702 ± 0.048 µM.
Compound `COc1ccc2[nH]cc(CCNc3nc(N)nc(NCCc4ccccc4)n3)c2c1.Cl` [Compound 5, N^2-(2-(5-Methoxy-1H-Indol-3-yl)ethyl)-N^4-Phenethyl-1,3,5-Triazine-2,4,6-Triamine Hydrochloride] had a melting point of 111 to 115 °C. Moreover, the Ki in data set [1] worked out at 0.629 ± 0.148 µM. Further, the Ki in data set [2] came to 0.883 ± 0.108 µM. Moreover, in data set [3], the Ki came out at 3.13 ± 0.758 µM. For the same compound, the Ki in data set [4] was 0.509 ± 0.033 µM.
For `Cc1ccc2[nH]cc(CCNc3nc(N)nc(NCCc4ccccc4)n3)c2c1.Cl` [Compound 6, N^2-(2-(5-Methyl-1H-Indol-3-yl)ethyl)-N^4-Phenethyl-1,3,5-Triazine-2,4,6-Triamine Hydrochloride], the melting point was 118 to 121 °C. In data set [1], the Ki was 0.1 ± 0.015 µM. In addition, the Ki in data set [2] was determined as 0.835 ± 0.168 µM. Moreover, the Ki in data set [3] is 16.6 µM. The Ki in data set [4] is 0.714 ± 0.112 µM.
`Cl.Nc1nc(NCCNc2ccccc2Cl)nc(NCCc2c[nH]c3ccccc23)n1` [Compound 7, N^2-(2-(1H-Indol-3-yl)ethyl)-N^4-(2-((2-Chlorophenyl)amino)ethyl)-1,3,5-Triazine-2,4,6-Triamine Hydrochloride] displayed a melting point of 105 to 108 °C. For the same compound, in data set [1], the “activity” value is given as “moderately active” and the Ki worked out at 0.423 ± 0.037 µM. Moreover, the Ki in data set [5] was 4.29 ± 1.03 µM. For the same compound, the Ki in data set [2] came to 2.12 ± 0.352 µM. Also, in data set [3], the Ki amounted to 30.8 µM. The Ki in data set [4] is 0.892 ± 0.144 µM.
In turn, `Cl.Nc1nc(NCCNc2cccc(Cl)c2)nc(NCCc2c[nH]c3ccccc23)n1` [Compound 8, N^2-(2-(1H-Indol-3-yl)ethyl)-N^4-(2-((3-Chlorophenyl)amino)ethyl)-1,3,5-Triazine-2,4,6-Triamine Hydrochloride] returned a melting point of 77 to 82 °C. In data set [1], the “activity” value is “moderately active” and the Ki is 0.131 ± 0.016 µM. Also, in data set [5], the Ki was found to be 1.24 ± 0.257 µM. Also, in data set [2], the Ki turned out to be 1.8 ± 0.264 µM. The Ki in data set [3] turned out to be 15.6 µM. Moreover, the Ki in data set [4] amounted to 4.02 ± 0.719 µM.
Regarding `Cl.Nc1nc(NCCNc2ccc(Cl)cc2)nc(NCCc2c[nH]c3ccccc23)n1` [Compound 9, N^2-(2-(1H-Indol-3-yl)ethyl)-N^4-(2-((4-Chlorophenyl)amino)ethyl)-1,3,5-Triazine-2,4,6-Triamine Hydrochloride], the melting point lay within 97 to 100 °C. Besides, in data set [1], the “activity” value is reported as “active” and the Ki was 0.019 ± 0.004 µM. Also, in data set [2], the Ki was 2.7 ± 0.581 µM. Moreover, the Ki in data set [3] is 16.2 µM. Further, the Ki in data set [4] was 0.641 ± 0.084 µM.
`Cl.Nc1nc(NCCNc2ccccc2F)nc(NCCc2c[nH]c3ccccc23)n1` [Compound 10, N^2-(2-(1H-Indol-3-yl)ethyl)-N^4-(2-((2-Fluorophenyl)amino)ethyl)-1,3,5-Triazine-2,4,6-Triamine Hydrochloride] showed a melting point of 94 to 97 °C. Besides, in data set [1], the “activity” value was “moderately active” and the Ki came to 0.132 ± 0.009 µM. Also, the Ki in data set [5] worked out at 20.4 µM. In data set [2], the Ki turned out to be 1.51 ± 0.362 µM. Further, the Ki in data set [3] was 36.5 µM. The inhibition constant Ki in data set [4] is 0.982 ± 0.115 µM.
For the compound `COc1cccc(NCCNc2nc(N)nc(NCCc3c[nH]c4ccccc34)n2)c1.Cl` [Compound 14, N^2-(2-(1H-Indol-3-yl)ethyl)-N^4-(2-((3-Methoxyphenyl)amino)ethyl)-1,3,5-Triazine-2,4,6-Triamine Hydrochloride], the melting point lay within 140 to 143 °C. In addition, the inhibition constant (Ki) in data set [1] was found to be 1.04 ± 0.081 µM. The Ki in data set [5] amounted to 36 µM. Also, the Ki in data set [2] amounted to 2.45 ± 0.273 µM. Moreover, the Ki in data set [4] came out at 2.79 ± 0.342 µM.
Take `COc1ccc(NCCNc2nc(N)nc(NCCc3c[nH]c4ccccc34)n2)cc1.Cl` [Compound 15, N^2-(2-(1H-Indol-3-yl)ethyl)-N^4-(2-((4-Methoxyphenyl)amino)ethyl)-1,3,5-Triazine-2,4,6-Triamine Hydrochloride]: the melting point was in the range of 150 to 153 °C. Also, the Ki in data set [1] was found to be 0.756 ± 0.107 µM.
Consider `Cl.Nc1nc(NCCc2c[nH]c3ccccc23)nc(NCCN2C(=O)c3ccccc3C2=O)n1` [Compound 16, 2-(2-((4-((2-(1H-Indol-3-yl)ethyl)amino)-6-Amino-1,3,5-Triazin-2-yl)amino)ethyl)isoindoline-1,3-Dione Hydrochloride], for which the melting point is 136 to 138 °C. In addition, in data set [1], the Ki is > 1 µM and 21.6 µM. The Ki in data set [5] came to 13.3 µM. Moreover, the Ki in data set [2] is 22.4 µM. For the same compound, the Ki in data set [4] is 8.76 ± 1.76 µM.
Turning to `Cl.Nc1nc(NCCc2c[nH]c3ccccc23)nc(NCCn2cnc3ccccc32)n1` [Compound 17, N^2-(2-(1H-Benzo[d]imidazol-1-yl)ethyl)-N^4-(2-(1H-Indol-3-yl)ethyl)-1,3,5-Triazine-2,4,6-Triamine Hydrochloride], the melting point lay within 195 to 200 °C. Also, the Ki in data set [1] came out at 0.227 ± 0.037 µM. Further, the Ki in data set [2] was 11.1 µM. Moreover, in data set [3], the Ki worked out at 63 µM. Moreover, the Ki in data set [4] was 2.63 ± 0.427 µM.
`Cc1nc2ccccc2n1CCNc1nc(N)nc(NCCc2c[nH]c3ccccc23)n1.Cl` [Compound 18, N^2-(2-(1H-indol-3-yl)ethyl)-N^4-(2-(2-methyl-1H-benzo[d]imidazol-1-yl)ethyl)-1,3,5-triazine-2,4,6-triamine hydrochloride] displayed a melting point of 190 to 194 °C. In addition, in data set [1], the inhibition constant Ki was > 1 µM and 4.13 µM. Further, the Ki in data set [2] stood at 9.35 ± 0.831 µM. Moreover, the Ki in data set [4] was 1.96 ± 0.269 µM.
The compound `Cl.Nc1nc(NCCc2c[nH]c3ccccc23)nc(NCCn2c(C(F)(F)F)nc3ccccc32)n1` [Compound 19, N^2-(2-(1H-Indol-3-yl)ethyl)-N^4-(2-(2-(Trifluoromethyl)-1H-Benzo[d]imidazol-1-yl)ethyl)-1,3,5-Triazine-2,4,6-Triamine Hydrochloride] had a melting point of 108 to 110 °C. Further, the Ki in data set [1] was > 1 µM and 3.46 µM. In data set [2], the Ki turned out to be 4.03 ± 0.537 µM. Further, the Ki in data set [3] was determined as 76.2 µM. Also, the Ki in data set [4] turned out to be 0.825 ± 0.072 µM.
With `Cl.Nc1nc(NCCc2c[nH]c3ccccc23)nc(Nc2ccc(F)cc2)n1` [Compound 21, N^2-(2-(1H-Indol-3-yl)ethyl)-N^4-(4-Fluorophenyl)-1,3,5-Triazine-2,4,6-Triamine Hydrochloride], the melting point was 232 to 235 °C. In data set [1], the “activity” value is “inactive” and the Ki is 2.05 ± 0.419 µM. In addition, the Ki in data set [5] was found to be 7.03 ± 0.439 µM. Moreover, in data set [2], the Ki turned out to be 0.884 ± 0.073 µM. Besides, the Ki in data set [4] is 1.77 ± 0.243 µM.
The compound `COc1ccc(Nc2nc(N)nc(NCCc3c[nH]c4ccccc34)n2)cc1.Cl` [Compound 22, N^2-(2-(1H-Indol-3-yl)ethyl)-N^4-(4-Methoxyphenyl)-1,3,5-Triazine-2,4,6-Triamine Hydrochloride] displayed a melting point of 194 to 196 °C. For the same compound, in data set [1], the “activity” value is “weakly active” and the Ki worked out at 0.727 ± 0.107 µM. In addition, the Ki in data set [2] turned out to be 3.11 ± 0.438 µM. In addition, the Ki in data set [3] came to 79.8 µM. Moreover, the Ki in data set [4] is 3.74 ± 0.539 µM.
